Assay [1] has as its target T1, 5-hydroxytryptamine receptor 2A (Homo sapiens, UniProt P28223). Description: Displacement of [3H]ketanserin from postmortem human brain membrane homogenate 5-HT2A receptor incubated for 120 mins by microbeta liquid scintillation counter analysis. Type of assay: cell membranes.
Assay [2] concerns the target T1, 5-hydroxytryptamine receptor 2A. Description: Inverse agonist activity at human postmortem human brain membrane 5-HT2A receptor assessed as […] in [35S]GTPgammaS binding by liquid scintillation spectrometry analysis. Type of assay: functional, cell membranes. In general terms: Binding of GTPγS marks nucleotide exchange on a G protein.
The target is the same in assay [3]. As to the kind of experiment: Displacement of [3H]ketanserin from human 5-HT2A receptor incubated for 120 mins by microbeta liquid scintillation counter analysis. In general terms: Displacement assays read how much labelled ligand stays bound in the presence of the test substance.
Assay [4] shares this target. Description: Inverse agonist activity at human 5-HT2A receptor assessed as […] in [35S]GTPgammaS binding by liquid scintillation spectrometry analysis. It counts as functional.
The target is the same in assay [5]. Description: Inverse agonist activity at human prefrontal cortex 5-HT2A receptor assessed as […] in [35S]GTPgammaS binding by liquid scintillation spectrometry analysis. Type of assay: functional, tissue-based.
Assay [6] has the same target. As to the kind of experiment: Inverse agonist activity at human 5-HT2A receptor expressed in cell membrane assessed as […] in [35S]GTPgammaS binding by liquid scintillation spectrometry analysis. It counts as functional, cell membranes.
For assay [7] the target is unchanged. As to the kind of experiment: Displacement of [3H]ketanserin from human brain cortex 5-HT2A receptor by Cheng-Prusoff equation analysis. It counts as tissue-based.
Assay [8] shares this target. Description: Displacement of [3H]ketanserin human recombinant 5-HT2A receptor by Cheng-Prusoff equation analysis.

The values that follow come from ChEMBL document CHEMBL5331125, “Design, Synthesis, Molecular Docking, and Biological Evaluation of Novel Pimavanserin-Based Analogues as Potential Serotonin 5-HT2A Receptor Inverse Agonists” (J Med Chem, 2023).

Structures are written as SMILES.

T1 sequence (P28223 whole entry): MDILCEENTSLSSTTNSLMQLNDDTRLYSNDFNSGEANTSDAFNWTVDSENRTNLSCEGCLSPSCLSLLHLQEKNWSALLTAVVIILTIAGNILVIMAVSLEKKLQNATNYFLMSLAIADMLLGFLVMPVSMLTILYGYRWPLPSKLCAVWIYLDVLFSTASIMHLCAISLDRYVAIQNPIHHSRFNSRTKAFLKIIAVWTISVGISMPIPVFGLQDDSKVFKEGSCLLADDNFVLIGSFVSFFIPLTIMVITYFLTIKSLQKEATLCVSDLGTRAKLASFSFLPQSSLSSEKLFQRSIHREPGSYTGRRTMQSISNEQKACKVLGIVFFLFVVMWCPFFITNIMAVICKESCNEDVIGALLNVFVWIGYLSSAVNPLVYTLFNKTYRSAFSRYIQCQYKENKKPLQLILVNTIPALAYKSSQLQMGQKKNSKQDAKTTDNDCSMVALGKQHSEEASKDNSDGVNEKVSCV

By Ki is commonly meant the equilibrium dissociation constant of an inhibitor or competing ligand from its target. For orientation: IC50 means the concentration needed to halve the response being measured. On to `CC1COc2ccc(CNC(=O)N(Cc3ccc(F)cc3)C3CCN(C)CC3)cc21` (stereo not given), for which the Ki in assay [1] is 5.01 nM; in assay [3], 0.158 nM. Moreover, the IC50 in assay [2] is 0.316 nM; in assay [4], 0.158 nM; in assay [5], 12.6 nM; in assay [6], 79.4 nM.
For the compound `CN1CCC(N(Cc2ccc(F)cc2)C(=O)NCc2ccc3c(c2)CC(C)(C)O3)CC1`, the Ki is 0.0501 nM in assay [1], 0.06 nM in assay [7], 0.003 nM in assay [8] and 0.00251 nM in assay [3]. The IC50 in assay [2] is 0.0501 nM; in assay [4] it was 0.0631 nM; in assay [5], 12.6 nM; in assay [6], 79.4 nM.
Regarding `CC1Cc2cc(CNC(=O)N(Cc3ccc(F)cc3)C3CCN(C)CC3)ccc2O1` (stereo not given), the Ki in assay [1] is 0.501 nM; in assay [3], 0.0316 nM. Besides, the half-maximal inhibitory concentration (IC50) in assay [2] is 0.251 nM; in assay [4], 0.251 nM; in assay [5], 12.6 nM; in assay [6], 79.4 nM.
